This is an account of results in patent publication US9708266B2, “Cyclohexyl pyridine derivative” (priority 2014, dated 2017).

The target in one test is NK1 receptor (Meriones unguiculatus (Mongolian jird) (Gerbillus unguiculatus), UniProt Q5DUB1). In words: Effect on GR73632-induced foot-tapping. The test is classed as in vivo. As to conditions: male gerbil, 0.1 mg/kg iv, GR73632 icv after four hours. The protocol:
The test compound solution was prepared by dissolving the test compound in a vehicle (a mixture of 50% N,N-dimethylacetamide (Wako Pure Chemical Industries), 30% propylene glycol (Wako Pure Chemical Industries), 4% 2-hydroxypropyl-[…] (Wako Pure Chemical Industries) and 16% distilled water).
A male gerbil (Japan SLC) was anesthetized with isoflurane, and 0.1 mg/kg of a test compound was administered from the jugular vein. After four hours, GR73632 (5 pmol/5 μl saline), which is an NK1 receptor agonist, was administered into the cerebral ventricle at the part 1 mm lateral to and 4.5 mm below the bregma in the head, under anesthesia with isoflurane. After the administration, the gerbil was moved to an observation cage, and the foot-tapping period during 30 minutes after the recovery of the righting reflex was measured. The foot-tapping inhibition rate (%) of each test compound was calculated by the following equation. Foot-tapping inhibition rate (%)={1−(Foot-tapping period when test compound was administered)/(Foot-tapping period when solvent was administered)}×100 (2) Measurement of Drug Concentrations

The target in the next test is human NK1 receptor (Homo sapiens (Human), UniProt P25103). Description: Affinity for human NK1 receptor (125I-substance P receptor binding test). As to conditions: membrane fraction of human NK1 receptor-expressing 293T cells; read-out: IC50 (concentration required for 50% inhibition of 125I-substance P binding). The protocol: Affinity for Human NK1 Receptor
PCR was performed using human adult normal tissue-derived brain cDNA (BioChain) as the template, with the forward primer of SEQ ID NO:1 and the reverse primer of SEQ ID NO:2, using a PCR enzyme, PrimeSTAR Max DNA Polymerase or PrimeSTAR GXL DNA Polymerase (registered trademark, Takara Bio). The amplified product was inserted into a plasmid (pCR-BluntII-TOPO (registered trademark), Life Technologies) using Zero Blunt PCR Cloning Kit (registered trademark, Life Technologies). By a general method, Escherichia coli (One Shot TOP10 competent cells, Life Technologies) was transformed by the plasmid into which the amplified product had been inserted. The Escherichia coli cells were cultured on an LB agar medium containing 50 μg/mL kanamycin for a day. After the culture, a colony was selected and cultured in an LB medium containing 50 μg/mL of kanamycin. After the culture, the plasmid was purified using Quantum Prep Plasmid Miniprep Kit (Bio-Rad). The plasmid was double digested for about two hours using restriction enzymes, XhoI and HindIII (New England Biolabs). Then, electrophoresis using 1% agarose gel was performed, and the fragment that was cleaved was collected and purified using TaKaRa RICOCHIP (Takara Bio). […]

Chain of NK1 receptor (Q5DUB1 whole entry): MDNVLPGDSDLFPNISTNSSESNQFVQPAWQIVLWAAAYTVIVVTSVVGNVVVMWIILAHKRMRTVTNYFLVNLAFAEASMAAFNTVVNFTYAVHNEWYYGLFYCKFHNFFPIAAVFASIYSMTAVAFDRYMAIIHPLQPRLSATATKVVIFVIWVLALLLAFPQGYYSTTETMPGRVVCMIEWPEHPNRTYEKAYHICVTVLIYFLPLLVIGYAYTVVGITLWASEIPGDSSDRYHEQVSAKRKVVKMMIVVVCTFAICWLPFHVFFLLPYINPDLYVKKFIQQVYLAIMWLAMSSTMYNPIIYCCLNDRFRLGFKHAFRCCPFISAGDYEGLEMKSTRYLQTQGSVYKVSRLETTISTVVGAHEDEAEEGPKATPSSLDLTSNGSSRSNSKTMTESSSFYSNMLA
Chain of human NK1 receptor (P25103 whole entry): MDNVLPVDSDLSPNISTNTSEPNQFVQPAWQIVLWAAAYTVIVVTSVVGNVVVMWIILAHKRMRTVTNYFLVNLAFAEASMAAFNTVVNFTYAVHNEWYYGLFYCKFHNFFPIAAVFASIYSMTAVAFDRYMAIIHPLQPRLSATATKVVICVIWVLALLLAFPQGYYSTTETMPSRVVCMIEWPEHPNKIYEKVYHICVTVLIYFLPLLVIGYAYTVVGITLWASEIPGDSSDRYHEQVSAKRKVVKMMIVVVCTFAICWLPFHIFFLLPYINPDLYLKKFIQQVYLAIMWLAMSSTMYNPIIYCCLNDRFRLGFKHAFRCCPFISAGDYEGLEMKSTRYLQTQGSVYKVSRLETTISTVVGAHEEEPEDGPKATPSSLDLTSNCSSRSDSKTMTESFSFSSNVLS

Turning to `Cc1cc(F)ccc1-c1cc(C2CCC(CCC(=O)O)CC2)ncc1N(C)C(=O)C(C)(C)c1cc(C(F)(F)F)cc(C(F)(F)F)c1` (centres unmarked) [Example 2, 3-{4-[5-{[2-(3,5-Bistrifluoromethylphenyl)-2-methylpropionyl]methylamino}-4-(4-fluoro-2-methylphenyl)pyridin-2-yl]cyclohexyl}propionic acid], the “Inhibition (foot-tapping inhibition rate)” value on NK1 receptor was 100%. Besides, at human NK1 receptor, the IC50 was determined as 1.78 nM.
